Data from patent publication US20100035943A1, “Oxa-and thiadiazoles and their use as metalloproteinase inhibitors” (VERNALIS (OXFORD) LTD, priority 2002, published 2010).

Columns and labels:
metalloelastase (MMP12) = metalloelastase (MMP12) (Homo sapiens, UniProt P39900); experiment: MMP12 enzyme inhibition assay (fluorogenic peptide substrate McaPLGLDpaAR); type: biochemical; details: protocol as for MMP9 assay
Description: Stock solutions were made up as follows: • Assay Buffer: 100 mM Tris-HCl pH 7.6 containing 100 mM NaCl, 10 mM CaCl2, and 0.05% Brij 35 • Substrate: 0.4 mM McaPLGLDpaAR (from Bachem) (0.437 mg/ml) stock solution in 100% DMSO (stored at −20° C.). Dilute to 8 μM in assay buffer. • Enzyme: Recombinant human 92 kDa gelatinase (MMP-9; APMA (4-aminophenyl • mercuric acetate)—activated if necessary) appropriately diluted in assay buffer.
Test Compounds were prepared initially as 10 mM compound solution in 100% DMSO, diluted to 1 mM in 100% DMSO, then serially diluted 3-fold in 100% DMSO across columns 1-10 of a 96-well microtitre plate Assay concentration range, 100 μM (column 1) to 5.1 nM (column 10)
The assay was performed in a total volume of 100 μl per well in 96-well microtitre plates. Activated enzyme (20 μl) was added to the wells followed by 20 μl of assay buffer. Appropriate concentrations of test compounds dissolved in 10 μl of DMSO were then added followed by 50 μl of McaPLGLDpaAR (8 μM, prepared by dilution of DMSO stock in assay buffer). For each assay ten concentrations of test compound were examined in duplicate. Control wells lack either enzyme or test compound. The reactions were incubated at 37° C. for 2 hours. The fluorescence at 405 nm was measured immediately with an SLT Fluostar fluorometer (SLT Labinstruments GmbH, Grödig, Austria) using 320 nm excitation, without stopping the reaction.
The effect of the test compound was determined from the dose response curve generated by the 10 duplicate concentrations of inhibitor. The IC50 (the concentration of compound required to give a 50% decrease in enzyme activity) was obtained by fitting data to the equation, Y=a+((b−a)/(1+(c/X)^d)). (Y=inhibition achieved for a particular dose; X=the dose in nM; a=minimum y or zero % inhibition; b=maximum y or 100% inhibition; c=is the IC50; d=is the slope). The result was rounded to one significant figure.
Compounds were tested for inhibitory activity against metalloelastase (MMP12) in an assay using a coumarin-labelled peptide substrate, (7-methoxycoumarin-4-yl)acetyl-Pro-Leu-Gly-Leu-(3-[2,4-dinitrophenyl]-L-2,3-diaminopropionyl)-Ala-Arg-NH2 (McaPLGLDpaAR) (Knight et al, FEBS Lett. 1992; 263-266). The protocol for this assay was as described for the MMP9 assay above.

[1] = tested on: CCl4-induced liver fibrosis; experiment: CCl4-induced liver fibrosis model; type: in vivo, Male Sprague-Dawley rats; details: rat, CCl4 i.p.
Source text: Carbon tetrachloride (CCl4) induces liver fibrosis when administered intraperitoneally (Bulbena O, Culat J, Bravo M L., Inflammation 1997 October; 21(5):475-88). Compounds of the invention can be evaluated for their ability to prevent the CCl4-induced formation of fibrotic tissue. Male Sprague-Dawley rats, 7 weeks old, weight approx. 300 g from Charles River/Iffa-Crédo, St-Germain/l'Arbresle, France. The study involved the following groups of 8 animals each, as indicated below. Group 1: “Sham” animals received CCl4 vehicle (i.p.) and once daily, the vehicle of test substance (s.c.) Group 2: Positive control group received CCl4 (i.p.), and once daily, the vehicle of the test substance (s.c.) Group 3: Experimental group received CCl4 (i.p.), and once daily, 2 mg/kg s.c. of the compound of Example 13. Group 4: Experimental group received CCl4 (i.p.), and once daily, 10 mg/kg s.c. of the compound of Example 13. Group 5: Experimental group received CCl4 (i.p.) and once daily, 20 mg/kg s.c. of the compound of Example 13. CCl4 (Prolabo) in olive oil was administered every 3 days for three weeks by intraperitoneal injection (0,25 ml CCl4/kg body weight, diluted in oil 1:1 vol:vol for a total volume of 0.5 ml/kg). Animals were weighed daily. If body weight decreased by more than 10% of the initial weight, the animal was excluded from the study. Vehicles and compound were used as follows: • CCl4 was administered in olive oil (prolabo) at a 1:1 dilution; • The compound of Example 13 was suspended in 0.25% Tween-80 and 0.25% carboxymethylcellulose in sterile 0.9% NaCl. The solution was kept at 4° C. throughout the experiment and used each day to prepare the suspensions. The compound of Example 13 was administered daily by subcutaneous (s.c.) injection at a volume of administration of 5 ml/kg. Groups 1 and 2 were dosed s.c. with 5 ml/kg of vehicle. Freshly prepared solutions were used on each day of the experiment. […] Plasma aspartate amino transferase (ASAT) and alanine amino transferase (ALAT) levels were measured in order to assess liver necrosis. […]

[2] = compound s.c. once daily 2, 10, 20 mg/kg for 21 days, compared to vehicle (FIG. 1)

metalloelastase (MMP12), sequence (P39900 106-470): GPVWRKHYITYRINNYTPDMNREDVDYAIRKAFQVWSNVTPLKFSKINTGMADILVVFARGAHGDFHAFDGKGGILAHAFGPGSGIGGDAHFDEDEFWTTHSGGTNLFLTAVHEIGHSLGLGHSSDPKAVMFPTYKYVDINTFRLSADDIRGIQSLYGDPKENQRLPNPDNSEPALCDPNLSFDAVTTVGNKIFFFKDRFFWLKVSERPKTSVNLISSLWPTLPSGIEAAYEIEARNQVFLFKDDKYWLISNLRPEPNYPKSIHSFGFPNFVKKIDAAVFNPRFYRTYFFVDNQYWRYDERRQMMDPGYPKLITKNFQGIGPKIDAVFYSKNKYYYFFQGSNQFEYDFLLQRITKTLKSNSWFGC

- IC50 (metalloelastase (MMP12)): < 100 nM
Compound: CC(C)C[C@@H](C(=O)N[C@H](c1noc(-c2cccs2)n1)C(C)(C)C)[C@H](O)C(=O)NO [Example 13, 2S-Hydroxy-3R-[1S-(5-thiophen-2-yl-[1,2,4]oxadiazol-3-yl)-2,2-dimethyl-propylcarbamoyl]-5-methyl Hexanohydroxamic Acid]
- Plasma alanine amino transferase (ALAT) level [1, 2]: clearly decreases
- Plasma aspartate amino transferase (ASAT) level [1, 2]: clearly decreases
- Effect on the liver ([1]; compound s.c. once daily, conclusion from ASAT and ALAT levels): protective effect on the liver
